Experimental data taken from PubChem BioAssay AID248 (DTP/NCI, 2004).
Where “and” joins values, the source holds several entries; their conditions need not be identical. Equal values may be shown once. Inconclusive results and toxic doses are left out.

System: L1210 leukemia ip in BDF1 mice, survival T/C
Test: NCI In Vivo Anticancer Drug Screen. Data for tumor model L1210 Leukemia (intraperitoneal) in B6D2F1 (BDF1) mice
Settings: endpoint: mean survival time, higher = longer survival
In short: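 Read-out is survival time, reported as the treated-group measurement over the vehicle-control measurement.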

[1] = dose: 100.0 mg/kg/injection, schedule: Q04DX003 (ip), vehicle: saline
[2] = dose: 200.0 mg/kg/injection, schedule: Q04DX003 (ip), vehicle: saline
[3] = dose: 400.0 mg/kg/injection, schedule: Q04DX003 (ip), vehicle: saline
[4] = dose: 100.0 mg/kg/injection, schedule: Q01DX009 (ip), vehicle: saline with Tween-80
[5] = dose: 200.0 mg/kg/injection, schedule: Q01DX009 (ip), vehicle: saline with Tween-80
[6] = dose: 400.0 mg/kg/injection, schedule: Q01DX009 (ip), vehicle: saline with Tween-80
[7] = dose: 100.0 mg/kg/injection, schedule: Q04DX002 (ip), vehicle: saline with Tween-80
[8] = dose: 200.0 mg/kg/injection, schedule: Q04DX002 (ip), vehicle: saline with Tween-80
[9] = dose: 100.0 mg/kg/injection, schedule: Q01DX001 (ip), vehicle: saline
[10] = dose: 200.0 mg/kg/injection, schedule: Q01DX001 (ip), vehicle: saline
[11] = dose: 400.0 mg/kg/injection, schedule: Q01DX001 (ip), vehicle: saline
[12] = dose: 100.0 mg/kg/injection, schedule: Q04DX003 (ip), vehicle: saline with Tween-80
[13] = dose: 200.0 mg/kg/injection, schedule: Q04DX003 (ip), vehicle: saline with Tween-80
[14] = dose: 100.0 mg/kg/injection, schedule: Q01DX009 (ip), vehicle: Klucel (hydroxypropylcellulose) (HPC)
[15] = dose: 200.0 mg/kg/injection, schedule: Q01DX009 (ip), vehicle: Klucel (hydroxypropylcellulose) (HPC)
[16] = dose: 400.0 mg/kg/injection, schedule: Q04DX003 (ip), vehicle: saline with Tween-80

## NNC(=S)N/N=C/c1ccc([N+](=O)[O-])s1
[1]
  T/C: 87 % of control
[2]
  T/C: 89 % of control
[3]
  T/C: 95 % of control

## CCCCCCCCN(CCCCCCCC)C(C)C(=O)c1ccc2cc(Br)c3ccccc3c2c1 (stereo not drawn)
dose: 100.0 mg/kg/injection, schedule: Q04DX003 (ip), vehicle: acetone
  T/C: 96 % of control
dose: 200.0 mg/kg/injection, schedule: Q04DX003 (ip), vehicle: acetone
  T/C: 107 % of control
dose: 400.0 mg/kg/injection, schedule: Q04DX003 (ip), vehicle: acetone
  T/C: 103 % of control

## CCOC(=O)NC1=C(N2CC2C)C(=O)C(NC(=O)OCC)=C(N2CC2C)C1=O (stereo not drawn)
dose: 0.93 mg/kg/injection, schedule: Q01DX009 (ip), vehicle: Klucel (hydroxypropylcellulose) (HPC)
  T/C: 94 % of control and 100 % of control
dose: 1.87 mg/kg/injection, schedule: Q01DX009 (ip), vehicle: Klucel (hydroxypropylcellulose) (HPC)
  T/C: 97 % of control and 107 % of control
dose: 3.12 mg/kg/injection, schedule: Q04DX003 (ip), vehicle: Klucel (hydroxypropylcellulose) (HPC)
  T/C: 106 % of control
dose: 3.75 mg/kg/injection, schedule: Q01DX009 (ip), vehicle: Klucel (hydroxypropylcellulose) (HPC)
  T/C: 98 % of control and 100 % of control
dose: 6.25 mg/kg/injection, schedule: Q04DX003 (ip), vehicle: Klucel (hydroxypropylcellulose) (HPC)
  T/C: 95 % of control
dose: 7.5 mg/kg/injection, schedule: Q01DX009 (ip), vehicle: Klucel (hydroxypropylcellulose) (HPC)
  T/C: 102 % of control and 91 % of control
dose: 12.5 mg/kg/injection, schedule: Q04DX003 (ip), vehicle: Klucel (hydroxypropylcellulose) (HPC)
  T/C: 106 % of control
dose: 15.0 mg/kg/injection, schedule: Q01DX009 (ip), vehicle: Klucel (hydroxypropylcellulose) (HPC)
  T/C: 91 % of control
dose: 25.0 mg/kg/injection, schedule: Q04DX003 (ip), vehicle: Klucel (hydroxypropylcellulose) (HPC)
  T/C: 112 % of control
dose: 50.0 mg/kg/injection, schedule: Q04DX003 (ip), vehicle: Klucel (hydroxypropylcellulose) (HPC)
  T/C: 110 % of control

## CC1CCC(C2=CSC3CCCCC3N2)CC1 (stereo not drawn)
dose: 100.0 mg/kg/injection, schedule: Q04DX002 (ip), vehicle: other
  T/C: 105 % of control
dose: 200.0 mg/kg/injection, schedule: Q04DX002 (ip), vehicle: other
  T/C: 94 % of control
dose: 400.0 mg/kg/injection, schedule: Q04DX002 (ip), vehicle: other
  T/C: 94 % of control

## Cn1nc(N)c2ncc(-c3ccc(Cl)cc3)nc21
[4]
  T/C: 93 % of control
[5]
  T/C: 96 % of control
[6]
  T/C: 87 % of control

## Oc1c(Br)cc(F)cc1Br
[7]
  T/C: 98 % of control
[8]
  T/C: 94 % of control

## CCCCCCCCCCCCCCOS(=O)(=O)c1ccc(C)cc1
dose: 50.0 mg/kg/injection, schedule: Q01DX001 (ip), vehicle: saline
  T/C: 102 % of control
[9]
  T/C: 102 % of control
[10]
  T/C: 96 % of control
[11]
  T/C: 100 % of control

## NC(=NCc1ccccc1)c1ccc(N=C(N)c2ccc(C(N)=Nc3ccc(C(N)=NCc4ccccc4)cc3)cc2)cc1
dose: 5.0 mg/kg/injection, schedule: Q01DX001 (ip), vehicle: water
  T/C: 95 % of control
dose: 6.25 mg/kg/injection, schedule: Q01DX009 (ip), vehicle: saline
  T/C: 119 % of control
dose: 10.0 mg/kg/injection, schedule: Q01DX001 (ip), vehicle: water
  T/C: 96 % of control
dose: 12.5 mg/kg/injection, schedule: Q01DX009 (ip), vehicle: saline
  T/C: 153 % of control
dose: 12.5 mg/kg/injection, schedule: Q01DX015 (oral), vehicle: water
  T/C: 95 % of control
dose: 15.0 mg/kg/injection, schedule: Q01DX001 (ip), vehicle: water
  T/C: 98 % of control
dose: 18.0 mg/kg/injection, schedule: Q01DX015 (ip), vehicle: water
  T/C: 249 % of control
dose: 20.0 mg/kg/injection, schedule: Q01DX001 (ip), vehicle: water
  T/C: 107 % of control
dose: 25.0 mg/kg/injection, schedule: Q01DX009 (ip), vehicle: saline
  T/C: 114 % of control
dose: 25.0 mg/kg/injection, schedule: Q01DX015 (ip), vehicle: water
  T/C: 222 % of control and 256 % of control
dose: 25.0 mg/kg/injection, schedule: Q01DX015 (oral), vehicle: water
  T/C: 91 % of control
dose: 50.0 mg/kg/injection, schedule: Q01DX015 (oral), vehicle: water
  T/C: 98 % of control
dose: 100.0 mg/kg/injection, schedule: Q01DX015 (oral), vehicle: water
  T/C: 98 % of control

## Cc1c(CCO)sc[n+]1Cc1cccc([N+](=O)[O-])c1
[9]
  T/C: 98 % of control

## CC(C)P(=O)(CCP(=O)(c1ccccc1)c1ccccc1)c1ccccc1 (stereo not drawn)
dose: 50.0 mg/kg/injection, schedule: Q04DX002 (ip), vehicle: saline with Tween-80
  T/C: 106 % of control
[7]
  T/C: 100 % of control
[8]
  T/C: 87 % of control

## COC(=O)CSC/C(=N\Nc1ccccc1)c1ccccc1
dose: 50.0 mg/kg/injection, schedule: Q04DX003 (ip), vehicle: saline
  T/C: 106 % of control
[9]
  T/C: 104 % of control
[1]
  T/C: 94 % of control
[10]
  T/C: 98 % of control
[2]
  T/C: 97 % of control
[11]
  T/C: 93 % of control
[3]
  T/C: 89 % of control

## Cc1cc(C)c(C)c(C(C)O)c1C (stereo not drawn)
[12]
  T/C: 96 % of control
[13]
  T/C: 94 % of control

## CNc1nc(N(C)C)nc(N(C)C)n1
dose: 75.0 mg/kg/injection, schedule: Q01DX001 (ip), vehicle: saline
  T/C: 92 % of control
dose: 150.0 mg/kg/injection, schedule: Q01DX001 (ip), vehicle: saline
  T/C: 94 % of control

## CC1=NN(c2ccccc2)C(=O)/C1=C\c1ccccc1
[14]
  T/C: 97 % of control
[15]
  T/C: 95 % of control

## CC(C)CCOC(OCCC(C)C)OCCC(C)C
[9]
  T/C: 100 % of control
[10]
  T/C: 97 % of control
[11]
  T/C: 105 % of control

## COc1cc(OC)c(NC(=O)NC(C)C)cc1Cl
[12]
  T/C: 98 % of control
[13]
  T/C: 89 % of control
[16]
  T/C: 88 % of control

## CON(C)CCO
dose: 25.0 mg/kg/injection, schedule: Q01DX001 (ip), vehicle: Klucel (hydroxypropylcellulose) (HPC)
  T/C: 107 % of control
dose: 50.0 mg/kg/injection, schedule: Q01DX001 (ip), vehicle: Klucel (hydroxypropylcellulose) (HPC)
  T/C: 107 % of control
dose: 100.0 mg/kg/injection, schedule: Q01DX001 (ip), vehicle: Klucel (hydroxypropylcellulose) (HPC)
  T/C: 105 % of control and 107 % of control
dose: 200.0 mg/kg/injection, schedule: Q01DX001 (ip), vehicle: Klucel (hydroxypropylcellulose) (HPC)
  T/C: 102 % of control

## Nc1nc(N)c2c(n1)CCCC2
dose: 12.5 mg/kg/injection, schedule: Q04DX003 (ip), vehicle: saline with Tween-80
  T/C: 95 % of control
dose: 25.0 mg/kg/injection, schedule: Q04DX003 (ip), vehicle: saline with Tween-80
  T/C: 93 % of control
dose: 50.0 mg/kg/injection, schedule: Q04DX003 (ip), vehicle: saline with Tween-80
  T/C: 91 % of control

## CC12CCC3c4ccccc4CCC3(CO1)C2 (stereo not drawn)
[14]
  T/C: 105 % of control
dose: 100.0 mg/kg/injection, schedule: Q04DX003 (ip), vehicle: Klucel (hydroxypropylcellulose) (HPC)
  T/C: 95 % of control
[15]
  T/C: 105 % of control
dose: 200.0 mg/kg/injection, schedule: Q04DX003 (ip), vehicle: Klucel (hydroxypropylcellulose) (HPC)
  T/C: 106 % of control
dose: 400.0 mg/kg/injection, schedule: Q01DX009 (ip), vehicle: Klucel (hydroxypropylcellulose) (HPC)
  T/C: 104 % of control
dose: 400.0 mg/kg/injection, schedule: Q04DX003 (ip), vehicle: Klucel (hydroxypropylcellulose) (HPC)
  T/C: 95 % of control

## COc1ccc(COC(=O)c2cc([N+](=O)[O-])cc([N+](=O)[O-])c2)cc1
dose: 100.0 mg/kg/injection, schedule: Q01DX001 (ip), vehicle: saline with Tween-80
  T/C: 95 % of control
dose: 200.0 mg/kg/injection, schedule: Q01DX001 (ip), vehicle: saline with Tween-80
  T/C: 100 % of control
dose: 400.0 mg/kg/injection, schedule: Q01DX001 (ip), vehicle: saline with Tween-80
  T/C: 92 % of control

## CN(C)CCC(O)Cc1ccccc1 (stereo not drawn)
dose: 100.0 mg/kg/injection, schedule: Q01DX009 (ip), vehicle: acetone
  T/C: 95 % of control
dose: 200.0 mg/kg/injection, schedule: Q01DX009 (ip), vehicle: acetone
  T/C: 101 % of control

## O=C(Cn1ccc(O)cc1=O)c1ccc(Cl)s1
[4]
  T/C: 111 % of control
[12]
  T/C: 98 % of control
[5]
  T/C: 90 % of control
[13]
  T/C: 93 % of control
[6]
  T/C: 91 % of control
[16]
  T/C: 98 % of control
